This note sets out measurements from US10980769B2, “Tiglien-3-one derivatives” (QBIOTICS PTY LTD, priority 2005, dated 2021).

The structures appear in SMILES notation.

One data set has as its system Trichophyton rubrum. Kind of data set: MycoTOX (Tr) antifungal bioassay. The class given is cell-based. As to the method:
MycoTOX (alternatively referred to herein as Tr) is a non-chromogenic bioassay used to detect activity against filamentous fungal pathogens of plants and animals. The bioassay features a solid phase agar base into which the test compound has been incorporated. As the growth patterns of filamentous fungi are readily apparent on the agar surface the extent of mycelial growth, sporulation (if relevant to the species under investigation) and colour changes with maturation are measured.
MycoTOX, involves a fungus (spore suspension or mycelial fragments) being applied to the surface of an agar matrix containing the test chemical and allowed to grow for a period of up to a week (depending on species). The assay is monitored at two discrete times to identify key development phases in the life cycle (for example mycelial growth and extent of sporulation) and the active wells noted. The monitoring times are dependent on the fungal species under investigation.
The MycoTOX assays were carried out using Trichophyton rubrum. The MycoTOX test is alternatively referred to as Tr to indicate the use of Trichophyton rubrum.

The subject of another data set is HT-29 colon tumour cells. In words: Cell scattering of cultured cells. The class given is cell-based, human. From the text: In addition, scattering of MCF-7 and HT-29 colon tumour cells was observed, typical of PKC activators. […] Additionally, given their similarity in structure, EBI-47, EBI-59 and EBI-61 are also considered to be protein kinase C activators.

Another data set concerns MCF-7. In words: Cell scattering of cultured cells. The class given is cell-based, human.
A short description of the next data set: Solubility tests. The class given is physicochemical. From the text: It requires a small amount of such solvents to form aqueous solutions. […] Higher solubilities may well be achieveable.
Another data set relates to human melanoma MM127. In words: Growth inhibition of cultured cells. The class given is cell-based. Here is the method: Briefly, a range of tumour cells including mouse melanoma, human melanoma, mouse squamous cell carcinoma, human breast, human colon, human leukemia and human lung and normal human cells including normal human fibroblasts were seeded at 2-5,000 per microtitre well (96-well plate) in 10% FCS-RPMI 1640 culture medium, treated, and allowed to grow until the controls were nearly confluent (5-6 days). The wells were then washed twice with PBS, fix with ethanol for a minimum of 5 minutes and washed with water. SRB solution (50 μL of 0.4% in 1% acetic acid) was added and left at room temperature for a minimum of 15 minutes. The plate was washed rapidly with tap water and then twice with 1% acetic acid. After addition of 100 μL/well of 10 mM Tris base (unbuffered, pH>9), plates were left for a minimum of 5 minutes, then the absorbance was read at 564 nm on the ELISA reader, with a 3 second prior shaking. After subtraction of a blank (wells with no cells, absorbance typically about 0.04), growth inhibition was calculated as % of the untreated control and plotted against dose.
Briefly, a suspension of a range of tumour cells including mouse melanoma, human melanoma, mouse squamous cell carcinoma, human breast, human colon, human leukemia and human lung and normal human cells including normal human fibroblasts were seeded into round-bottom microtitre plates in 10% FCS-RPMI 1640 culture medium, treated and allowed to grow for 5-6 days. To measure cell growth, 20 μL of a combined MTS/PMS solution (Promega Cell ProliferationAssay Kit Cat #G5430) was added to each well of the 96 well assay plate. After 1-4 hours the plates were placed in the ELISA plate reader and the absorbance read at 490 nm. After subtraction of a blank (wells with no cells, absorbance typically about 0.4), growth inhibition was calculated as % of the untreated control and plotted against dose.
For growth inhibition assays, cells (2000-5000/well) were seeded in 96-well plates in duplicate, treated with drug next day and allowed to grow for a further 5-6 days. The plates were then washed in PBS (phosphate buffered saline, pH 7.2), fixed with ethanol and stained by addition of 50 μL 0.4% SRB (sulforhodamine) in 1% acetic acid. The plate was left at room temperature for a minimum of 15 minutes, then washed rapidly with tap water and then twice with 1% acetic acid. After addition of 100 μL/well of 10 mM Tris base (unbuffered, pH>9), plates were left for a minimum of 5 minutes, then the absorbance was read at 564 nm on the ELISA reader, with a 3 second prior shaking. After subtraction of a blank (wells with no cells, typically about 0.04), growth inhibition was calculated as % of the untreated control and plotted against dose.

In the next data set the test system is LK-2 mouse SCC. In words: Intralesional injection of LK-2 SCC tumours in mice. The class given is in vivo. As to the method: Squamous Cell Carcinoma (SCC) tumours were established by the same method as for topical treatment but were allowed to grow for 15 days before drug treatment. 7 μg EBI-46 in 20 μL, saline was injected into each of 3 sides of the tumour. Tumour size was measured with calipers at appropriate intervals.
Animal experiments were conducted under Queensland Institute of Medical Research (QIMR) Animal Ethics Committee approvals. The B16 mouse melanoma model was obtained by injecting 0.5 million B16 mouse melanoma cells subcutaneously into each of the 2 flanks of a male C57BL/6 mouse. The human tumour xenografts were obtained by injecting 2 million of the respective tumour cell line into each of 4 sites on the flanks of male nude mice (BALB/c background). EBI-46 was applied: (a) topically by dilution of a concentrated solution in acetone into an isopropanol gel, once a day for 3 days; (b) intralesionally by injection into the tumour of drug dissolved in 25% propylene glycol-0.1 M saline, (c) systemically by injection intraperitoneally in 25% propylene glycol in 0.1 M saline. Tumour size was measured with electronic callipers in mm and converted to volume (cubic mm) using the formula: Tumour volume=length×breadth×breadth/2. Results
A pilot study was conducted on 6 mm×6 mm LK-2 tumours established in nude mice. Approximately 50 μL of a solution of EB548 fractions (approximately 20 μg EBI-46 in the EB548-35 fraction) in saline containing 20% acetone were injected in 3 sites around the periphery of each lesion. This was only done once.
With PEG 400 delivery, 10 μg EBI-46 in 25 μL solution was injected (29 gauge) with a 0.5 mL insulin needle into a 7 mm×7 mm tumour, highly visible on the left flank of a nude mouse.

Regarding `C/C=C(\C)C(=O)OC1C(C)C2(O)C(C3OC3(CO)C(O)C3(O)C(=O)C(C)=CC32)C2C(C)(C)C12OC(=O)C(C)CC` (centres unmarked) [EBI-46, 12-tigloyl-13-(2-methylbutanoyl)-6,7-epoxy-4,5,9,12,13,20-hexahydroxy-1-tiglian-3-one], in the data set on Trichophyton rubrum, the “Tr Titre” value came out at 0. Further, the “scattering of HT-29 colon tumour cells” value in the data set on HT-29 colon tumour cells is recorded as “scattering”. Also, the “scattering of MCF-7 cells” value in the data set with MCF-7 was “cell scattering”. Also, the solubility in “Solubility tests” (5 μg/mL in 99.9% water), in the data set “Solubility tests” (50 μg/mL in 99% water) and in “Solubility tests” (450 μg/mL in 90% water) was 100% throughout. Also, the solubility in vehicle entry in the data set “Solubility tests” (25% propylene glycol-saline, 250 μg/mL) is reported as “no sign of insolubility”; in “Solubility tests” (PEG 400 containing 10% ethanol), “freely soluble”. For the same molecule, the “solubility in organic solvents” value in “Solubility tests” (acetone, alcohols and PEG 400) is given as “highly soluble”. For the same molecule, in the data set with human melanoma MM127, the “Concentration of EBI-46 at which growth inhibition was observed” value is below 100 ng/mL. Besides, the “tumour at 16 hours” value in the data set on LK-2 mouse SCC (10 μg in 25 μL PEG 400 containing 10% ethanol, 7 mm × 7 mm tumour) is listed as “tumour lump had largely gone”. Further, the “time mouse remained tumour-free” value in the data set with LK-2 mouse SCC (10 μg in PEG 400 containing 10% ethanol, single injection) was “over 9 months”. Also, the “systemic toxicity or lung metastases on post mortem” value with LK-2 mouse SCC (intralesional 21 ug) is listed as “There were no signs of”. For the same molecule, the tumour size result in the data set on LK-2 mouse SCC (intralesional 21 ug (3 × 7 ug), 15-day established tumours) is “reduction of tumour size”.
